Measured values taken from patent publication US10689383B2, “Optionally fused heterocyclyl-substituted derivatives of pyrimidine useful for the treatment of inflammatory, metabolic, oncologic and autoimmune diseases” (NUEVOLUTION A/S, priority 2014, dated 2020).

Columns and labels:
[1] = target: T1, human RORγt (Ligand Binding Domain) (Homo sapiens, UniProt P51449); assay: Fluorescence Polarization (FP) Assay; conditions: Fluorescence Polarization (FP) Assay; values given as upper bounds of activity ranges; read-out: FP activity range
T1 construct: purchased Crelux (Planegg, Germany) batch no PC5032-1
T1 sequence (P51449 269-508 limits assumed): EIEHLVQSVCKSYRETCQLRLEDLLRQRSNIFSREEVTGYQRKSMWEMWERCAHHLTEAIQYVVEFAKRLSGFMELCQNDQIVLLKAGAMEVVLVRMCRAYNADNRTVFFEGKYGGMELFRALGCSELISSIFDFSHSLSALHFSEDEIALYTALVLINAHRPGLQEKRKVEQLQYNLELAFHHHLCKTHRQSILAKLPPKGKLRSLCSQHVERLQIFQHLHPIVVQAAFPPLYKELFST
In short: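 In vitro FP binding assay monitoring ligand binding within the ligand binding pocket. Probe is a TAMRA-labelled RORγt ligand (MW 910 g/mole); DMSO served as negative control.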

[2] = target: T2, yeast Gal4-DNA binding domain fused to the ligand binding domain of human RORγ (Homo sapiens, UniProt P51449); assay: RORγ Reporter Assay (Gal4); type: cell-based; conditions: values given as lower bounds of ranges; for Gal4 activity range @ 0.1 μM (% inhibition): RORγ Reporter Assay (Gal4) at 0.1 μM; for Gal4 activity range @ 1 μM (% inhibition): RORγ Reporter Assay (Gal4) at 1 μM
T2 construct: host or cells: HEK293t
T2 sequence (P51449 269-508 limits assumed): T1 sequence (P51449 269-508 limits assumed)
In short: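 HEK293t reporter cells expressing the hybrid, with Gal4-UAS-driven firefly luciferase, treated in triplicate with compound at 1,000 nM and 100 nM (0.1% DMSO) in medium with 10% charcoal-stripped FBS for 24 h at 37 °C. Luminescence read; percent reduction of RLU calculated relative to vehicle.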

IC50 [1] | Gal4 activity range @ 0.1 μM (% inhibition) [2] | Gal4 activity range @ 1 μM (% inhibition) [2] | Compound
< 500 nM | >20 % inhibition | >20 % inhibition | COc1ccc(C2CCCN2c2ncnc(NCc3ccc(CC(N)=O)cc3)c2F)c(OC)c1 (stereo not drawn) [Example 318, 2-[4-[[[6-[2-(2,4-dimethoxyphenyl)pyrrolidin-1-yl]-5-fluoro-pyrimidin-4-yl]amino]methyl]phenyl]acetamide]
< 500 nM | >20 % inhibition | >50 % inhibition | Cc1ccc(C2CCCN2c2ncnc(NCc3ccc(CC(N)=O)cc3)c2F)cc1 (stereo not drawn) [Example 302, 2-[4-[[[5-fluoro-6-[2-(p-tolyl)pyrrolidin-1-yl]pyrimidin-4-yl]amino]methyl]phenyl]acetamide]
< 500 nM | >80 % inhibition | >80 % inhibition | NC(=O)Cc1ccc(Cn2ccc3c(N4CCOC[C@@H]4c4ccc(OC(F)(F)F)cc4)ncnc32)cc1 [Example 252, 2-[4-[[4-[(3S)-3-[4-(trifluoromethoxy)phenyl]morpholin-4-yl]pyrrolo[2,3-d]pyrimidin-7-yl]methyl]phenyl]acetamide]
< 10000 nM | – | >0 % inhibition | Cc1c(N[C@H](CC(C)(C)C)C(N)=O)ncnc1N1CCCC1c1ccc(C(F)(F)F)cc1 (stereo partly drawn) [Example 14, (2R)-4,4-dimethyl-2-[[5-methyl-6-[2-[4-(trifluoromethyl)phenyl]pyrrolidin-1-yl]pyrimidin-4-yl]amino]pentanamide]
< 500 nM | >50 % inhibition | >80 % inhibition | CCOc1ccc(C2CCCN2c2ncnc(NCc3ccc(CC(N)=O)cc3)c2F)cc1 (stereo not drawn) [Example 301, 2-[4-[[[6-[2-(4-ethoxyphenyl)pyrrolidin-1-yl]-5-fluoro-pyrimidin-4-yl]amino]methyl]phenyl]acetamide]
< 1000 nM | >20 % inhibition | >80 % inhibition | NC(=O)CC1CCC(CNc2ncnc(N3CCOC[C@@H]3c3ccc(OC(F)(F)F)cc3)c2F)CC1 (stereo partly drawn) [Example 245, 2-[4-[[[5-fluoro-6-[(3S)-3-[4-(trifluoromethoxy)phenyl]morpholin-4-yl]pyrimidin-4-yl]amino]methyl]cyclohexyl] acetamide]
< 500 nM | >80 % inhibition | >80 % inhibition | CS(=O)(=O)N1CCC(CNc2ncnc(N3CCOC[C@@H]3c3ccc(C(F)(F)F)cc3)c2F)CC1 [Example 237, 5-fluoro-N-[(1-methylsulfonyl-4-piperidyl)methyl]-6-[(3S)-3-[4-(trifluoromethyl)phenyl]morpholin-4-yl]pyrimidin-4-amine]
< 500 nM | >20 % inhibition | – | Fc1c(NCC2CCSCC2)ncnc1N1CCC[C@@H]1c1ccc(C(F)(F)F)cc1 [Example 164, 5-fluoro-N-(tetrahydrothiopyran-4-ylmethyl)-6-[(2R)-2-[4-(trifluoromethyl)phenyl]pyrrolidin-1-yl]pyrimidin-4-amine]
< 1000 nM | – | >20 % inhibition | COc1ccc(CNc2ncnc(N3CCCC3c3ccc(C(F)(F)F)cc3)c2F)cc1OC (stereo not drawn) [Example 53, N-[(3,4-dimethoxyphenyl)methyl]-5-fluoro-6-[2-[4-(trifluoromethyl)phenyl]pyrrolidin-1-yl]pyrimidin-4-amine]
< 1000 nM | >20 % inhibition | >80 % inhibition | CC1(CNc2ncnc(N3CCC[C@@H]3c3ccc(C(F)(F)F)cc3)c2F)CCCO1 (stereo partly drawn) [Example 199, 5-fluoro-N-[(2-methyltetrahydrofuran-2-yl)methyl]-6-[(2R)-2-[4-(trifluoromethyl)phenyl]pyrrolidin-1-yl]pyrimidin-4-amine]
< 2000 nM | – | >20 % inhibition | NC(=O)[C@@H](CC1CCNC1=O)Nc1ncnc(N2CCCC2c2ccc(C(F)(F)F)cc2)c1F (stereo partly drawn) [Example 63, (2R)-2-[[5-fluoro-6-[2-[4-(trifluoromethyl)phenyl]pyrrolidin-1-yl]pyrimidin-4-yl]amino]-3-(2-oxopyrrolidin-3-yl)propanamide]
< 500 nM | >80 % inhibition | >80 % inhibition | O=S(=O)(NC1CC1)c1ccc(CNc2ncnc(N3CCC[C@@H]3c3ccc(C(F)(F)F)cc3)c2F)cc1 [Example 224, N-cyclopropyl-4-[[[5-fluoro-6-[(2R)-2-[4-(trifluoromethyl)phenyl]pyrrolidin-1-yl]pyrimidin-4-yl]amino]methyl]benzenesulfonamide]
< 10000 nM | >20 % inhibition | >20 % inhibition | NC(=O)Cc1ccc(CNc2ncnc(N3CCCC3c3ccc(O)cc3)c2F)cc1 (stereo not drawn) [Example 300, 2-[4-[[[5-fluoro-6-[2-(4-hydroxyphenyl)pyrrolidin-1-yl]pyrimidin-4-yl]amino]methyl]phenyl]acetamide]
< 500 nM | >80 % inhibition | – | O=C(O)Cc1ccc(Cn2ccc3c(N4CCC[C@@H]4c4ccc(C(F)(F)F)cc4)ncnc32)cc1 [Example 195, 2-[4-[[4-[(2R)-2-[4-(trifluoromethyl)phenyl]pyrrolidin-1-yl]pyrrolo[2,3-d]pyrimidin-7-yl]methyl]phenyl]acetic acid]
< 500 nM | >80 % inhibition | >80 % inhibition | OCc1ccc(CNc2ncnc(N3CCC[C@@H]3c3ccc(C(F)(F)F)cc3)c2F)cc1 [Example 227, [4-[[[5-fluoro-6-[(2R)-2-[4-(trifluoromethyl)phenyl]pyrrolidin-1-yl]pyrimidin-4-yl]amino]methyl]phenyl]methanol]
< 500 nM | – | >20 % inhibition | COc1cc(C(F)(F)F)ccc1C1CCCN1c1ncnc(N[C@H](CC(C)(C)C)C(N)=O)c1F (stereo partly drawn) [Example 65, (2R)-2-[[5-fluoro-6-[2-[2-methoxy-4-(trifluoromethyl)phenyl]pyrrolidin-1-yl]pyrimidin-4-yl]amino]-4,4-dimethyl-pentanamide]
< 1000 nM | >50 % inhibition | – | Fc1c(NCc2ccsc2)ncnc1N1CCC[C@@H]1c1ccc(C(F)(F)F)cc1 [Example 185, 5-fluoro-N-(3-thienylmethyl)-6-[(2R)-2-[4-(trifluoromethyl)phenyl]pyrrolidin-1-yl]pyrimidin-4-amine]
< 1000 nM | >20 % inhibition | >50 % inhibition | Cc1ccc(CNc2ncnc(N3CCCC3(C)c3ccc(C(F)(F)F)cc3)c2F)cn1 (stereo not drawn) [Example 209, 5-fluoro-N-[(6-methyl-3-pyridyl)methyl]-6-[2-methyl-2-[4-(trifluoromethyl)phenyl]pyrrolidin-1-yl]pyrimidin-4-amine]
< 500 nM | >50 % inhibition | >80 % inhibition | NC(=O)Cc1ccc(Cn2ccc3c(N4CCOC[C@@H]4c4ccc(C(F)(F)F)nc4)ncnc32)cc1 [Example 326, 2-[4-[[4-[(3S)-3-[6-(trifluoromethyl)-3-pyridyl]morpholin-4-yl]pyrrolo[2,3-d]pyrimidin-7-yl]methyl]phenyl]acetamide]
< 2000 nM | – | >80 % inhibition | Cc1ccc(COc2ncnc(N3CCCC3c3ccc(C(F)(F)F)cc3)c2F)cn1 (stereo not drawn) [Example 74, 5-fluoro-4-[(6-methyl-3-pyridyl)methoxy]-6-[2-[4-(trifluoromethyl)phenyl]pyrrolidin-1-yl]pyrimidine]
< 2000 nM | >20 % inhibition | >50 % inhibition | NC(=O)C1(CNc2ncnc(N3CCOC[C@@H]3c3ccc(C(F)(F)F)cc3)c2F)CCOCC1 [Example 255, 4-[[[5-fluoro-6-[(3S)-3-[4-(trifluoromethyl)phenyl]morpholin-4-yl]pyrimidin-4-yl]amino]methyl]tetrahydropyran-4-carboxamide]
< 10000 nM | – | >0 % inhibition | CNC(=O)[C@@H](CC(C)(C)C)N(C)c1ncnc(N2CCCC2c2ccc(C(F)(F)F)cc2)c1F (stereo partly drawn) [Example 31, (2R)-2-[[5-fluoro-6-[2-[4-(trifluoromethyl)phenyl]pyrrolidin-1-yl]pyrimidin-4-yl]-methyl-amino]-N,4,4-trimethyl-pentanamide]
< 500 nM | >20 % inhibition | >50 % inhibition | NC(=O)Cc1ccc(Cn2ccc3c(N4CCOCC4c4ccccc4)ncnc32)cc1 (stereo not drawn) [Example 284, 2-[4-[[4-(3-phenylmorpholin-4-yl)pyrrolo[2,3-d]pyrimidin-7-yl]methyl]phenyl]acetamide]
